From ChEMBL document CHEMBL1126278, “New neplanocin analogues. 1. Synthesis of 6'-modified neplanocin A derivatives as broad-spectrum antiviral agents” (J Med Chem, 1992)
In brackets after ≈: the same amount, converted by molar mass.

Legend:
[1] = tested on: HeLa; test: Inhibitory effect on replication of RNA virus coxsB-4 in HeLa cell line.; assay type: functional, cell-based; conditions: Homo sapiens
[2] = tested on: MT4; test: Inhibitory effect on replication of RNA virus cell growth in MT-4 cell line.; assay type: functional, cell-based; conditions: Homo sapiens
[3] = tested on: HEL; test: Inhibitory effect on replication of DNA virus CMV (Davis) on HEL cell line.; assay type: functional, cell-based; conditions: Homo sapiens
[4] = tested on: Vero; test: Inhibitory effect on replication of RNA virus TV in Vero cell line.; assay type: functional, cell-based; conditions: Chlorocebus sabaeus
[5] = tested on: PRK; test: Inhibitory effect on replication of DNA virus Cell morphology on PRK cell line; assay type: functional, cell-based; conditions: Oryctolagus cuniculus
[6] = tested on: Vero; test: Inhibitory effect on replication of RNA virus SV in Vero cell line.; assay type: functional, cell-based; conditions: Chlorocebus sabaeus
[7] = tested on: Vero; test: Inhibitory effect on replication of RNA virus JV in Vero cell line.; assay type: functional, cell-based; conditions: Chlorocebus sabaeus
[8] = tested on: Vero; test: Inhibitory effect on replication of RNA virus SFV in Vero cell line; assay type: functional, cell-based; conditions: Chlorocebus sabaeus
[9] = tested on: Vero; test: Inhibitory effect on replication of RNA virus cell morphology in Vero cell line.; assay type: functional, cell-based; conditions: Chlorocebus sabaeus
[10] = tested on: HeLa; test: cells; conditions: Homo sapiens
[11] = tested on: Vero; test: Inhibitory effect on replication of RNA virus PV-3 in Vero cell line.; assay type: functional, cell-based; conditions: Chlorocebus sabaeus
[12] = tested on: PRK; test: Inhibitory effect on replication of RNA virus VSV in PRK cell line.; assay type: functional, cell-based; conditions: Oryctolagus cuniculus
[13] = tested on: HEL; test: Inhibitory effect on replication of DNA virus CMV (AD-169) on HEL cell line.; assay type: functional, cell-based; conditions: Homo sapiens
[14] = tested on: MDCK; test: cells; conditions: Canis lupus familiaris
[15] = tested on: Vero; test: Inhibitory effect on replication of RNA virus coxsB-4 in Vero cell line; assay type: functional, cell-based; conditions: Chlorocebus sabaeus
[16] = tested on: PRK; test: Inhibitory effect on replication of RNA virus cell morphology in PRK cell line.; assay type: functional, cell-based; conditions: Oryctolagus cuniculus
[17] = tested on: MDCK; test: cells; conditions: Canis lupus familiaris; remark: listed apart in the source
[18] = tested on: MT4; test: Inhibitory effect on replication of DNA virus RNA virus HIV-1 in MT-4 cell line.; assay type: functional, cell-based; conditions: Homo sapiens
[19] = tested on: MDCK; test: Inhibitory effect on replication of RNA virus cell morphology in MDCK cell line.; assay type: functional, cell-based; conditions: Canis lupus familiaris
[20] = Inhibitory effect on replication of DNA virus HSV-2 (G) in PRK cell line.; assay type: functional, cell-based; conditions: Oryctolagus cuniculus
[21] = tested on: HeLa; test: Inhibitory effect on replication of RNA virus RSV in HeLa cell line; assay type: functional, cell-based; conditions: Homo sapiens
[22] = Inhibitory effect on replication of DNA virus HSV-1 (KOS) in PRK cell line.; assay type: functional, cell-based; conditions: Oryctolagus cuniculus
[23] = tested on: Vero; test: Inhibitory effect on replication of RNA virus measles on Vero cell line.; assay type: functional, cell-based; conditions: Chlorocebus sabaeus
[24] = tested on: MT4; test: Inhibitory effect on replication of DNA virus RNA virus HIV-2 in MT-4 cell line.; assay type: functional, cell-based; conditions: Homo sapiens
[25] = tested on: Vero; test: Inhibitory effect on replication of RNA virus protein synthesis in Vero cell line.; assay type: functional, cell-based; conditions: Chlorocebus sabaeus
[26] = tested on: Vero; test: Inhibitory effect on replication of RNA virus reo-1 in Vero cell line.; assay type: functional, cell-based; conditions: Chlorocebus sabaeus
[27] = tested on: HeLa; test: Inhibitory effect on replication of RNA virus VSV in HeLa cell line.; assay type: functional, cell-based; conditions: Homo sapiens
[28] = tested on: PRK; test: Inhibitory effect on replication of DNA virus VV on PRK cell line.; assay type: functional, cell-based; conditions: Oryctolagus cuniculus
[29] = tested on: HeLa; test: Inhibitory effect on replication of RNA virus cell morphology in HeLa cell line.; assay type: functional, cell-based; conditions: Homo sapiens
[30] = tested on: Vero; test: Inhibitory effect on replication of RNA virus RNA synthesis in Vero cell line.; assay type: functional, cell-based; conditions: Chlorocebus sabaeus
[31] = tested on: HEL; test: Inhibitory effect on replication of DNA virus VZV (Oka) on HEL cell line.; assay type: functional, cell-based; conditions: Homo sapiens
[32] = tested on: HEL; test: Inhibitory effect on replication of DNA virus Cell growth on HEL cell line.; assay type: functional, cell-based; conditions: Homo sapiens
[33] = tested on: HEL; test: Inhibitory effect on replication of DNA virus VZV (YS) on HEL cell line.; assay type: functional, cell-based; conditions: Homo sapiens
[34] = tested on: HEL; test: Inhibitory effect on replication of DNA virus TK-VZV (07-1) on HEL cell line.; assay type: functional, cell-based; conditions: Homo sapiens
[35] = tested on: MT4; test: Inhibitory effect on replication of RNA virus HIV-1 in MT-4 cell line.; assay type: functional, cell-based; conditions: Homo sapiens
[36] = tested on: HEL; test: Inhibitory effect on replication of DNA virus TK-VZV (YSR) on HEL cell line.; assay type: functional, cell-based; conditions: Homo sapiens
[37] = tested on: Vero; test: Inhibitory effect on replication of virus protein synthesis in Vero cell line.; assay type: functional, cell-based; conditions: Chlorocebus sabaeus
[38] = tested on: ESM; test: Inhibitory effect on replication of RNA virus cell morphology in ESM cell line.; assay type: functional, cell-based
[39] = tested on: ESM; test: Inhibitory effect on replication of DNA virus VV on ESM cell line.; assay type: functional, cell-based
[40] = tested on: ESM; test: Inhibitory effect on replication of DNA virus HSV-1 (KOS) in ESM cell line; assay type: functional, cell-based
[41] = tested on: ESM; test: Inhibitory effect on replication of DNA virus TK-HSV-1 (VMW 1837) on ESM cell line.; assay type: functional, cell-based
[42] = tested on: HeLa; test: Inhibitory effect on replication of DNA virus RNA virus cell morphology in HeLa cell line.; assay type: functional, cell-based; conditions: Homo sapiens
[43] = tested on: ESM; test: Inhibitory effect on replication of DNA virus HSV-2 (G) in ESM cell line; assay type: functional, cell-based
[44] = tested on: ESM; test: Inhibitory effect on replication of RNA virus VSV in ESM cell line.; assay type: functional, cell-based
[45] = tested on: ESM; test: Inhibitory effect on replication of DNA virus TK-HSV-1 (B2006) on ESM cell line.; assay type: functional, cell-based
[46] = tested on: ESM; test: Inhibitory effect on replication of DNA virus Cell morphology on ESM cell line; assay type: functional, cell-based

SMILES: C=CC1=C[C@@H](n2cnc3c(N)ncnc32)[C@H](O)[C@@H]1O
- IC50 [1]: > 400 µg/mL
- IC50 [2]: 6 µg/mL (≈ 23.1 µM)
- IC50 [3]: 17 µg/mL (≈ 65.6 µM)
- IC50 [4]: 10 µg/mL (≈ 38.6 µM)
- IC50 [5]: > 400 µg/mL
- IC50 [6]: > 200 µg/mL
- IC50 [7]: 8 µg/mL (≈ 30.9 µM)
- IC50 [8]: > 200 µg/mL
- IC50 [9]: 400 µg/mL (≈ 1540 µM)
- IC50 [10]: > 400 µg/mL
- IC50 [11]: 40 µg/mL (≈ 154 µM)
- IC50 [12]: 20 µg/mL (≈ 77.1 µM)
- IC50 [13]: 18 µg/mL (≈ 69.4 µM)
- IC50 [14]: > 100 µg/mL
- IC50 [15]: > 200 µg/mL
- IC50 [16]: > 400 µg/mL
- IC50 [17]: > 100 µg/mL
- IC50 [18]: > 8 µg/mL
- IC50 [19]: > 100 µg/mL
- IC50 [20]: > 200 µg/mL
- IC50 [21]: 100 µg/mL (≈ 386 µM)
- IC50 [22]: > 200 µg/mL
- IC50 [23]: 40 µg/mL (≈ 154 µM)
- IC50 [24]: > 8 µg/mL
- IC50 [25]: 47 µg/mL (≈ 181 µM)
- IC50 [26]: 70 µg/mL (≈ 270 µM)
- IC50 [27]: 300 µg/mL (≈ 1160 µM)
- IC50 [28]: 20 µg/mL (≈ 77.1 µM)
- IC50 [29]: > 400 µg/mL
- IC50 [30]: 14 µg/mL (≈ 54 µM)

SMILES: Nc1ncnc2c1ncn2[C@@H]1C=C(CCl)[C@@H](O)[C@H]1O
- IC50 [31]: 2.5 µg/mL (≈ 8.87 µM)
- IC50 [1]: > 40 µg/mL
- IC50 [2]: 0.2 µg/mL (≈ 0.71 µM)
- IC50 [3]: 0.7 µg/mL (≈ 2.48 µM)
- IC50 [32]: 9 µg/mL (≈ 31.9 µM)
- IC50 [4]: 2 µg/mL (≈ 7.1 µM)
- IC50 [5]: 40 µg/mL (≈ 142 µM)
- IC50 [6]: > 40 µg/mL
- IC50 [7]: 2 µg/mL (≈ 7.1 µM)
- IC50 [8]: > 40 µg/mL
- IC50 [33]: 2 µg/mL (≈ 7.1 µM)
- IC50 [34]: 1 µg/mL (≈ 3.55 µM)
- IC50 [9]: 40 µg/mL (≈ 142 µM)
- IC50 [10]: > 40 µg/mL
- IC50 [11]: 7 µg/mL (≈ 24.8 µM)
- IC50 [12]: 0.7 µg/mL (≈ 2.48 µM)
- IC50 [13]: 2 µg/mL (≈ 7.1 µM)
- IC50 [14]: > 10 µg/mL
- IC50 [15]: > 40 µg/mL
- IC50 [16]: 40 µg/mL (≈ 142 µM)
- IC50 [17]: > 10 µg/mL
- IC50 [19]: 10 µg/mL (≈ 35.5 µM)
- IC50 [20]: > 20 µg/mL
- IC50 [35]: > 0.06 µg/mL
- IC50 [21]: 0.8 µg/mL (≈ 2.84 µM)
- IC50 [22]: > 20 µg/mL
- IC50 [23]: 0.8 µg/mL (≈ 2.84 µM)
- IC50 [25]: 0.8 µg/mL (≈ 2.84 µM)
- IC50 [26]: 0.7 µg/mL (≈ 2.48 µM)
- IC50 [36]: 2 µg/mL (≈ 7.1 µM)
- IC50 [37]: 5 µg/mL (≈ 17.7 µM)

SMILES: Nc1ncnc2c1ncn2[C@@H]1C=C(CO)[C@@H](O)[C@H]1O [NEOPLANOCIN A]
- IC50 [31]: 8 µg/mL (≈ 30.4 µM)
- IC50 [1]: > 40 µg/mL
- IC50 [2]: 0.02 µg/mL (≈ 0.076 µM)
- IC50 [3]: 0.2 µg/mL (≈ 0.76 µM)
- IC50 [32]: 16 µg/mL (≈ 60.8 µM)
- IC50 [4]: 0.4 µg/mL (≈ 1.52 µM)
- IC50 [5]: 40 µg/mL (≈ 152 µM)
- IC50 [6]: > 40 µg/mL
- IC50 [38]: 40 µg/mL (≈ 152 µM)
- IC50 [7]: 0.4 µg/mL (≈ 1.52 µM)
- IC50 [8]: > 40 µg/mL
- IC50 [33]: 5 µg/mL (≈ 19 µM)
- IC50 [34]: 5 µg/mL (≈ 19 µM)
- IC50 [9]: 10 µg/mL (≈ 38 µM)
- IC50 [10]: > 40 µg/mL
- IC50 [11]: 0.4 µg/mL (≈ 1.52 µM)
- IC50 [39]: 0.2 µg/mL (≈ 0.76 µM)
- IC50 [12]: 0.2 µg/mL (≈ 0.76 µM)
- IC50 [13]: 0.3 µg/mL (≈ 1.14 µM)
- IC50 [14]: > 20 µg/mL
- IC50 [15]: > 40 µg/mL
- IC50 [40]: 20 µg/mL (≈ 76 µM)
- IC50 [16]: 40 µg/mL (≈ 152 µM)
- IC50 [41]: 7 µg/mL (≈ 26.6 µM)
- IC50 [17]: > 20 µg/mL
- IC50 [19]: 20 µg/mL (≈ 76 µM)
- IC50 [20]: > 40 µg/mL
- IC50 [35]: > 0.006 µg/mL
- IC50 [21]: 0.2 µg/mL (≈ 0.76 µM)
- IC50 [22]: > 40 µg/mL
- IC50 [42]: 20 µg/mL (≈ 76 µM)
- IC50 [23]: 0.2 µg/mL (≈ 0.76 µM)
- IC50 [43]: 10 µg/mL (≈ 38 µM)
- IC50 [25]: 4.3 µg/mL (≈ 16.3 µM)
- IC50 [26]: 0.4 µg/mL (≈ 1.52 µM)
- IC50 [27]: 0.2 µg/mL (≈ 0.76 µM)
- IC50 [36]: 2 µg/mL (≈ 7.6 µM)
- IC50 [28]: 0.2 µg/mL (≈ 0.76 µM)
- IC50 [44]: 0.2 µg/mL (≈ 0.76 µM)
- IC50 [45]: 4 µg/mL (≈ 15.2 µM)
- IC50 [30]: 0.21 µg/mL (≈ 0.798 µM)
- IC50 [46]: 40 µg/mL (≈ 152 µM)
